{"source": "the NIST ThermoML archive (doi:10.1021/je800070y)", "conditions": "Liquid, Rate of evaporation", "note": "± gives the expanded uncertainty stated by the source."}
{"smiles": "OC[C@@H](O)[C@@H](O)[C@H](O)[C@@H](O)CO", "note": "[D-sorbitol]", "values": [{"measurement": "vapor or sublimation pressure", "setting": "523.15 K", "value": "1.31 ± 0.1", "unit": "kPa"}, {"measurement": "vapor or sublimation pressure", "setting": "548.15 K", "value": "4.49 ± 0.35", "unit": "kPa"}, {"measurement": "vapor or sublimation pressure", "setting": "573.15 K", "value": "12.3 ± 1", "unit": "kPa"}, {"measurement": "vapor or sublimation pressure", "setting": "598.15 K", "value": "30 ± 2.3", "unit": "kPa"}, {"measurement": "vapor or sublimation pressure", "setting": "623.15 K", "value": "65 ± 5", "unit": "kPa"}]}
{"smiles": "OCC(O)CO", "note": "[glycerol]", "values": [{"measurement": "vapor or sublimation pressure", "setting": "463.15 K", "value": "3.85 ± 0.3", "unit": "kPa"}, {"measurement": "vapor or sublimation pressure", "setting": "483.15 K", "value": "8.64 ± 0.67", "unit": "kPa"}, {"measurement": "vapor or sublimation pressure", "setting": "503.15 K", "value": "17.9 ± 1.4", "unit": "kPa"}, {"measurement": "vapor or sublimation pressure", "setting": "523.15 K", "value": "34.5 ± 2.7", "unit": "kPa"}, {"measurement": "vapor or sublimation pressure", "setting": "543.15 K", "value": "62.6 ± 4.8", "unit": "kPa"}]}
